Consider 1 compound from US20130065868A1, “ANXIOYTIC MARCGRAVIACEAE COMPOSITIONS CONTAINING BETULINIC ACID, BETULINIC ACID DERIVATIVES, AND METHODS” (UNIVERSITY OF OTTAWA, priority 2002, published 2013).

In one data set the test system is Sprague-Dawley rats. Kind of data set: Fear-potentiated startle paradigm in rats. It is filed as in vivo, rat. The source says: In this anxiety/fear paradigm, rats are first trained to associate a neutral stimulus (a light) with an aversive stimulus (an electric shock to the foot). […] However, when the acoustic stimulus is preceded by a fear cue (the light in this case), there is potentiation of their natural startle response. This potentiation of startle responses is thought to result from a classically conditioned increase in fear. Anxiolysis is inferred when there is a reduction in the magnitude of the fear-potentiated startle response.
The fear potentiated startle equipment (Med-Associates, St-Albans, Vt.) constituted (1) a pressure-sensitive platform upon which the animal is placed (in an enclosure with shock-grid floor), (2) Speakers and amplifier, to deliver acoustic stimulus, (3) Computer controlled light cue, and (4) a computerized interface to deliver the auditory and/or visual stimuli, and to record the magnitude of startle detected by the platform. The whole set up is housed in a sound attenuated and darkened chamber.
The experiment involved three phases; a training phase, a screening phase and the testing phase. […] The second or screening phase involved identifying the rats that learnt to associate the light cue with the shock, which was assessed by measuring their startle response in the absence and the presence of the fear cue. […]

Data set [1] can be described thus: Weight gain over chronic treatment. In kind it is in vivo, rat. The note with it: rats, chronic 0.5 mg/kg daily orally (FIG. 12).
For the next data set, the target named is COMT (Homo sapiens, UniProt P21964). The data set can be described thus: MDS Panlabs screen: COMT. It is filed as biochemical. The note with it: Catecholamines. Here is the method:
(§1) Tests were conducted by MDS Panlabs to determine whether any of the classical neurotransmitter systems or the peptidergic systems thought to play a role in anxiety are affected by betulinic acid.

For a further data set, the target named is NE transporter (Homo sapiens, UniProt P23975). Kind of data set: MDS Panlabs screen: NE transporter. It is filed as binding. The note with it: Catecholamines. Here is the method:
as §1

The next data set addresses DA transporter (Homo sapiens, UniProt Q01959). Kind of data set: MDS Panlabs screen: DA transporter. It is filed as binding. The note with it: Catecholamines. Here is the method: as §1
The subject of another data set is nicototinic. Kind of data set: MDS Panlabs screen: nicotinic. It is filed as binding. The note with it: Acetylcholine. Here is the method: as §1
In another data set the target is galanin GalR1 (Homo sapiens, UniProt P47211). The data set can be described thus: MDS Panlabs screen: galanin GalR1. It is filed as binding. The note with it: Peptides. Here is the method: as §1
A further data set addresses tachykinin NK2 (Homo sapiens, UniProt P21452). Kind of data set: MDS Panlabs screen: tachykinin NK2. In kind it is binding. The note with it: Peptides. The method, then:
as §1

The target in the next data set is tachykinin NK3 (Homo sapiens, UniProt P29371). Kind of data set: MDS Panlabs screen: tachykinin NK3. It is filed as binding. The note with it: Peptides. Here is the method: as §1
Sequence of tachykinin NK3 (P29371 whole entry): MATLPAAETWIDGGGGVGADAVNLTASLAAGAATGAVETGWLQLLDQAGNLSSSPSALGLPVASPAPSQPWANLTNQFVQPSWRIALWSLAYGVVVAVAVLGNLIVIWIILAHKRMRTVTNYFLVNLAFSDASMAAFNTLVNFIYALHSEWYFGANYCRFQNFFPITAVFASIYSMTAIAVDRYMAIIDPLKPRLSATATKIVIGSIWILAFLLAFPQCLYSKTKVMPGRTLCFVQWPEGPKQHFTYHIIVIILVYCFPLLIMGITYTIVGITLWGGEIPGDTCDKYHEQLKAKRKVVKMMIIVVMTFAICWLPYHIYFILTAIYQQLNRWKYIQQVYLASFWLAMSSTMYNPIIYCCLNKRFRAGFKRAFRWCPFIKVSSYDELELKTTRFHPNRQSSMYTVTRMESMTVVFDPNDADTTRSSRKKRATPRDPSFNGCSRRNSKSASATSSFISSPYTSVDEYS

Sequence of DA transporter (Q01959 whole entry, species assumed): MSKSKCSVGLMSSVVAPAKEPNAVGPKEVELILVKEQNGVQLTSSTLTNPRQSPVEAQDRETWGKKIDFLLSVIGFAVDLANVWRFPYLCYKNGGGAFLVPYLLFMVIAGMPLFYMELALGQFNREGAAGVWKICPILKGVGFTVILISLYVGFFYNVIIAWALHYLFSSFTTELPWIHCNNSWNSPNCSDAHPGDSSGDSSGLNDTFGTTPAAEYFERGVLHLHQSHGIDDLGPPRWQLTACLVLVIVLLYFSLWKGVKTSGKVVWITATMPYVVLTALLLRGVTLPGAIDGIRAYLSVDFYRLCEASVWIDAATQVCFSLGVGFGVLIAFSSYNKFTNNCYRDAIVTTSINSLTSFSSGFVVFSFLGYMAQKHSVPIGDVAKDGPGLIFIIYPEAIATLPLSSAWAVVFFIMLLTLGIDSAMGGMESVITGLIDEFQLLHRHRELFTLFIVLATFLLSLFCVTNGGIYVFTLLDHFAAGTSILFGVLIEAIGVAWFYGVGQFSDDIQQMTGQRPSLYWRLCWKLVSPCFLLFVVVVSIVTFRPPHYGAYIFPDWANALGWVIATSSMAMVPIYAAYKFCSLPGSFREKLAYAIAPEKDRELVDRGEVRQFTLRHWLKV
Sequence of COMT (P21964 whole entry, species assumed): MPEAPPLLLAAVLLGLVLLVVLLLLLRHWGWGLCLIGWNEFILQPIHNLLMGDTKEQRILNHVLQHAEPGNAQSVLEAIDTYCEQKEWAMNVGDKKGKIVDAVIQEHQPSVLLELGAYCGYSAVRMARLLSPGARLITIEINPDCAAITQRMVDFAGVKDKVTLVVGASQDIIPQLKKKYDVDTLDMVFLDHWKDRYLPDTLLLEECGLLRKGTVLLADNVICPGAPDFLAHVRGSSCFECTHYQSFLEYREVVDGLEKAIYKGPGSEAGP
Sequence of NE transporter (P23975 whole entry): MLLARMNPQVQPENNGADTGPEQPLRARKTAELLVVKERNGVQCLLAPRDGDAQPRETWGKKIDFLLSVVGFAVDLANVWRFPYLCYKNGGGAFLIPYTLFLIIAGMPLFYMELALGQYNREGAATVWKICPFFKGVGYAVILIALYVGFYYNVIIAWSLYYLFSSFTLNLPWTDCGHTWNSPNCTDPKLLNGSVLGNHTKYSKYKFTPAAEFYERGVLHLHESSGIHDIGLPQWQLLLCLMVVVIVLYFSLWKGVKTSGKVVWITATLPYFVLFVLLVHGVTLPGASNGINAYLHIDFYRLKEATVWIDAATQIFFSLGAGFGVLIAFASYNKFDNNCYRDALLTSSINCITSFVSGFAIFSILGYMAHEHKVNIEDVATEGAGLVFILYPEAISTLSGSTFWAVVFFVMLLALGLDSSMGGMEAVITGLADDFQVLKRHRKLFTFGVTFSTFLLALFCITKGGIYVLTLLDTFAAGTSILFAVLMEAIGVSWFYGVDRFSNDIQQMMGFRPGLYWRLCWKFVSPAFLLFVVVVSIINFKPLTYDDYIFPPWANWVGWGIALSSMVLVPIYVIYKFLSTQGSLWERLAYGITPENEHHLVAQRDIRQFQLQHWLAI
Sequence of galanin GalR1 (P47211 whole entry): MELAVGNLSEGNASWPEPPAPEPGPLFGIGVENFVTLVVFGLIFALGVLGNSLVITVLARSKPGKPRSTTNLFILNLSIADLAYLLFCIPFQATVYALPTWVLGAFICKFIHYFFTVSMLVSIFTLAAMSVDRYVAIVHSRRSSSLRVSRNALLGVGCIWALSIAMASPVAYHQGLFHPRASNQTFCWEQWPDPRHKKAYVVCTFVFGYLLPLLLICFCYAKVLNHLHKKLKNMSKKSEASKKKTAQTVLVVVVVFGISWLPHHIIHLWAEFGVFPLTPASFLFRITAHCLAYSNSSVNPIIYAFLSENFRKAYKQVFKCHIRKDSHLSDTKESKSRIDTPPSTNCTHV
Sequence of tachykinin NK2 (P21452 whole entry): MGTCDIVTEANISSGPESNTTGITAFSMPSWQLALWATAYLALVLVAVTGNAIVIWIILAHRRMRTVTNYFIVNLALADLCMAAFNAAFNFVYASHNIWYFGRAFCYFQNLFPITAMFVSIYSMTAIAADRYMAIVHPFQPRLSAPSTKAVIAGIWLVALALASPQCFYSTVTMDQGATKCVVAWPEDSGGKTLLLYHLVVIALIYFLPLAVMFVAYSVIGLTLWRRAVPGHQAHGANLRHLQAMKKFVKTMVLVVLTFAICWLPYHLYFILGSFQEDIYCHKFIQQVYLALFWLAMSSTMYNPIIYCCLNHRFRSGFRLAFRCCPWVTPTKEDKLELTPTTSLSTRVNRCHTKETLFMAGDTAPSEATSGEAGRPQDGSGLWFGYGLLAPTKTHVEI

As for `C=C(C)[C@@H]1CC[C@]2(C(=O)O)CC[C@]3(C)C(CC[C@@H]4[C@@]5(C)CC[C@H](O)C(C)(C)[C@@H]5CC[C@]43C)[C@@H]12` (stereo partly shown) [betulinic acid, Betulinic acid], the “startle response in the presence of the fear-cue” value with Sprague-Dawley rats (1 mg/kg in peanut oil orally (gavage), 45-60 min after treatment (FIG. 4)) is listed as “significantly attenuated the startle response in the presence of the fear-cue”. In the data set on Sprague-Dawley rats (1 mg/kg orally (gavage), vs peanut oil control (FIG. 4)), the “difference in startle amplitude (presence minus absence of the fear cue)” value was “much lower”. Besides, the “effect of chronic drug treatment on weight gain” value in data set [1] is on record as “did not seem to affect weight gain in a significant manner”. The “affected by betulinic acid” value at COMT, at NE transporter, at DA transporter, with nicototinic, at galanin GalR1 and on tachykinin NK2 was “none of the following neurotransmitters or proteins were affected” each time. For the same compound, the “affected by betulinic acid” value at tachykinin NK3 is given as “none of the following neurotransmitters or proteins were affected”.
